Consider seven compounds from patent US10357036B2, “Compounds for controlling arthropods” (priority 2015, dated 2019).

One series deals with Amblyomma hebraeum. Description: Amblyomma hebraeum test (tick nymphs, immersion). The format is in vivo. The following applies: 100 ppm; after 42 days. How it is done: (§1) • Solvent: dimethyl sulfoxide
(§2) To produce a suitable active ingredient formulation, 10 mg of active ingredient are mixed with 0.5 ml of dimethyl sulfoxide, and the concentrate is diluted with water to the desired concentration.
Tick nymphs (Amblyomma hebraeum) are placed into perforated plastic beakers and immersed in the desired concentration for one minute. The ticks are transferred on filter paper into a Petri dish and stored in a climate-controlled cabinet.

The subject of another series is Boophilus microplus. Description: Boophilus microplus injection test. The format is in vivo. The following applies: 20 μg/animal; assessed after 7 days. How it is done:
as §1
1 μl of the active ingredient solution is injected into the abdomen of 5 engorged adult female cattle ticks (Boophilus microplus). The animals are transferred into dishes and kept in a climate-controlled room.

Another series concerns Spodoptera frugiperda. Description: Spodoptera frugiperda spray test. The format is in vivo. The note with it: 100 g/ha, after 7 days; for pest or weed control at 100 g/ha: Spodoptera frugiperda, 168 h, read-out: efficacy.
Series [1] relates to Myzus persicae. Kind of series: Myzus persicae spray test (Chinese cabbage leaf discs). The format is in vivo. The following applies: 100 g/ha; after 6 days. The method, then: (§3) After 6 days, the efficacy in % is determined.
For a further series, the system named is Rhipicephalus sanguineus. Description: Rhipicephalus sanguineus in vitro contact test with adult brown dog ticks. The note with it: application rate 5 μg/cm^2 (=500 g/ha); after 48 h; dead or moribund ticks. The format is in vivo. An outline of the steps:
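Adult Rhipicephalus sanguineus (5-10 per tube) held in glass tubes coated with compound from acetone solution, 900 ppm giving 5 μg/cm^2, in the dark at room temperature. After 48 h ticks put on a 45-50° C hotplate up to 5 min; motionless or uncoordinated ticks scored dead/moribund as % efficacy.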

For another series, the system named is Tetranychus urticae. Description: Tetranychus urticae spray test, OP-resistant (bean leaf discs). The format is in vivo. The following applies: 100 g/ha; after 6 days. The method, then:
as §3

Series [2] relates to Ctenocephalides felis. Description: Ctenocephalides felis oral test. The format is in vivo. The note with it: 100 ppm in citrated cattle blood; after 2 days.
The test system of series [3] is Ctenocephalides felis. Kind of series: Ctenocephalides felis in vitro contact test with adult cat fleas. The format is in vivo. The note with it: application rate 5 μg/cm^2 (=500 g/ha); after 48 h; dead or moribund fleas. The method, boiled down:
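Glass tubes were coated with compound in acetone (900 ppm solution gives 5 μg/cm²), dried, then loaded with 5–10 adult cat fleas. Held horizontal at room temperature and ambient humidity for 48 h. Efficacy is the % of fleas dead or moribund (motionless or uncoordinated after knock-down).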

In a further series the test system is Musca domestica. Kind of series: Musca domestica test. The following applies: 100 ppm; adult houseflies; after 2 days. The format is in vivo. How it is done: as §1, §2
Vessels containing a sponge treated with sugar solution and the active ingredient formulation of the desired concentration are populated with 10 adult houseflies (Musca domestica).

The subject of series [4] is cattle ticks (Boophilus microplus) Parkhurst strain, SP-resistant. Kind of series: Boophilus microplus dip test. The format is in vivo. The following applies: 100 ppm; assessed after 7 days. The method, then: • Test animals: cattle ticks (Boophilus microplus) Parkhurst strain, SP-resistant • Solvent: dimethyl sulfoxide
10 mg of active ingredient are dissolved in 0.5 ml of dimethyl sulfoxide. To produce a suitable formulation, the active ingredient solution is diluted with water to the concentration desired in each case.
This active ingredient formulation is pipetted into tubes. 8-10 engorged adult female cattle ticks (Boophilus microplus) are transferred into a further tube with holes. The tube is immersed into the active ingredient formulation, and all the ticks are completely wetted. After the liquid has run out, the ticks are transferred on filter discs into plastic dishes and stored in a climate-controlled room.
Efficacy is assessed after 7 days by laying of fertile eggs. Eggs which are not visibly fertile are stored in a climate-controlled cabinet until the larvae hatch after about 42 days. An efficacy of 100% means that none of the ticks has laid any fertile eggs; 0% means that all the eggs are fertile.

The subject of the next series is Phaedon cochleariae. Description: Phaedon cochleariae spray test. The note with it: for efficacy: 100 g/ha, after 7 days; for pest or weed control at 100 g/ha: Phaedon cochleariae, 168 h, read-out: efficacy.
For series [5], the system named is Anopheles gambiae strain RSPH (homozygot kdr). Kind of series: whole plant or invertebrate. The following applies: read-out: efficacy (mortality). The format is in vivo. How it is done: (§4) • Solvent: acetone+2000 ppm rapeseed oil methyl ester (RME)
To produce a suitable active compound formulation, the active compound is dissolved in the solvent (2 mg/ml). The active compound formulation is pipetted onto a glazed tile and, after it has dried off, adult mosquitoes of the species Anopheles gambiae strain RSPH (homozygot kdr) are placed onto the treated tile. The exposure time is 30 minutes.

Series [6] relates to Aedes aegypti strain MONHEIM. Description: whole plant or invertebrate. The format is in vivo. The following applies: read-out: efficacy (mortality). How it is done: as §4
To produce a suitable active compound formulation, the active compound is dissolved in the solvent (2 mg/ml). The active compound formulation is pipetted onto a glazed tile and, after it has dried off, adult mosquitoes of the species Aedes aegypti strain MONHEIM are placed onto the treated tile. The exposure time is 30 minutes.

Series [7] concerns Anopheles funestus strain FUMOZ-R. Description: whole plant or invertebrate. The following applies: read-out: efficacy (mortality). The format is in vivo. The method, then: as §4
To produce a suitable active compound formulation, the active compound is dissolved in the solvent (2 mg/ml). The active compound formulation is pipetted onto a glazed tile and, after it has dried off, adult mosquitoes of the species Anopheles funestus strain FUMOZ-R (Hunt et al., Med Vet Entomol. 2005 September; 19 (3):271-5) are placed onto the treated tile. The exposure time is 30 minutes.

The test system of another series is Viola tricolor (VIOTR). Kind of series: Herbicidal activity, pre-emergence. The format is in vivo. The note with it: 1280 g/ha, 3 weeks. The text has this:
(§5) Seeds of monocotyledonous and dicotyledonous weed plants and crop plants were placed in wood-fibre pots in sandy loam and covered with soil. The compounds according to the invention, formulated as emulsion concentrates (EC), were then applied to the surface of the covering soil as an emulsion at a water application rate equating to 600 to 800 Uha with addition of 0.2% wetting agent.
(§6) After the treatment, the pots were placed in a greenhouse and kept under good growth conditions for the test plants. The damage to the test plants was scored visually after a test period of 3 weeks by comparison with untreated controls (herbicidal activity in percent (%): 100% activity=the plants have died, 0% activity=like control plants). Here, for example, compounds No. Ia-17, Ia-37, Ia-28 and Ia-56 at an application rate of 1280 g/ha each show 100% efficacy against Amaranthus retroflexus (AMARE) and with the exception of Ia-56, even against Viola tricolor (VIOTR). Furthermore, compounds no. Ia-17, Ia-37 and Ia-28 at the same application rate show an 80% or better efficacy against Matricaria inodorae (MATIN) and Ia-17 and Ia-37 even against Stellaria media (STEME).

Series [8] has as its system Amaranthus retroflexus (AMARE). Kind of series: Herbicidal activity, pre-emergence. The format is in vivo. The note with it: 1280 g/ha, 3 weeks.
Description: as §5, §6

In series [9] the test system is Myzus persicae. Kind of series: Myzus persicae spray test (bell pepper plants). The format is in vivo. The note with it: 4 ppm; after 6 days. How it is done:
To produce further test concentrations, the latter is diluted with emulsifier-containing water. When addition of ammonium salts and/or penetrants is required, these are each added at a concentration of 1000 ppm to the preparation solution.
Bell pepper plants (Capsicum annuum), which are heavily infested by the green peach aphid (Myzus persicae), are treated by being sprayed with the active compound preparation at the desired concentration.
After 6 days, the kill in % is determined.

The mark [10] stands for this setting: reversed-phase C18 HPLC column, logP, HPLC, C18, acetonitrile/water with formic acid (note a).

SMILES strings stand for the structures. Read-outs that look alike come from different tables or passages of the source.

As to `CCC(=O)NCc1cc(-c2cnn(-c3c(C)cc(C(F)(C(F)(F)F)C(F)(F)F)cc3C)c2)ccc1F` [Ia-01], the “efficacy (rate of extermination)” value in the series on Amblyomma hebraeum, with Ctenocephalides felis [2] and with Musca domestica was 100% in each case. Moreover, the “efficacy (laying of fertile eggs)” value (in the series with Boophilus microplus; in [4]) was 100% each time. The efficacy in the series on Spodoptera frugiperda, in the series with Myzus persicae [1], in the series on Rhipicephalus sanguineus, in the series with Tetranychus urticae, in the series with Ctenocephalides felis [3] and in the series with Phaedon cochleariae was 100% in each case.

On to `CC(=S)NCc1cc(-c2cnn(-c3c(Cl)cc(C(F)(C(F)(F)F)C(F)(F)F)cc3Cl)c2)ccc1Cl` [Ia-162, N-(2-chloro-5-{1-[2,6-dichloro-4-(1,1,1,2,3,3,3-heptafluoropropan-2-yl)phenyl]-1H-pyrazol-4-yl}benzyl)ethanethioamide], for which the chromatographic logP was determined as 4.98 under setting [10] and 4.98 (reversed-phase C18 HPLC column, logP^a, HPLC-MS method a), reversed-phase column (C18)). The “efficacy (laying of fertile eggs)” value with Boophilus microplus is on record as 100%; in series [4] it was 80%. Besides, the mortality at 20 mg/m2 in series [5], in series [6] and in series [7] was 90 to 100% in each case. Besides, the pest or weed control at 100 g/ha in the series with Spodoptera frugiperda and in the series on Phaedon cochleariae was 100% each time. The efficacy with Rhipicephalus sanguineus, in the series on Tetranychus urticae and in the series with Ctenocephalides felis [3] was 100% each time. In addition, the “efficacy (rate of extermination)” value with Ctenocephalides felis [2] and with Musca domestica was 100% in each case.

As for `CC(=O)NCc1cc(-c2cnn(-c3c(C)cc(C(F)(C(F)(F)F)C(F)(F)F)cc3C)c2)ccc1F` [Ia-13], the “efficacy (rate of extermination)” value with Amblyomma hebraeum, in the series with Ctenocephalides felis [2] and in the series on Musca domestica was 100% in each case. For the same compound, the “efficacy (laying of fertile eggs)” value (in the series with Boophilus microplus; in series [4]) was 100% each time. Moreover, the efficacy with Spodoptera frugiperda, with Myzus persicae [1], in the series with Rhipicephalus sanguineus, in the series on Tetranychus urticae, with Ctenocephalides felis [3] and in the series with Phaedon cochleariae was 100% each time.

With `CC(=O)NCc1cccc(-c2cnn(-c3c(C)cc(C(F)(C(F)(F)F)C(F)(F)F)cc3C)c2)c1` [Ia-37], the “efficacy (laying of fertile eggs)” value in the series with Boophilus microplus was determined as 100%. In addition, the efficacy in the series with Spodoptera frugiperda turned out to be 83%; with Rhipicephalus sanguineus, 80%; in the series with Tetranychus urticae, 100%; with Phaedon cochleariae, 100%. Further, the “efficacy (rate of extermination)” value with Ctenocephalides felis [2] and in the series with Musca domestica was 100% throughout. Besides, the herbicidal efficacy (in the series on Viola tricolor (VIOTR); in series [8]) was 100% throughout.

Regarding `CCC(=O)NCc1cccc(-c2cnn(-c3c(C)cc(C(F)(C(F)(F)F)C(F)(F)F)cc3C)c2)c1` [Ia-28], the “efficacy (laying of fertile eggs)” value in the series on Boophilus microplus came to 100%; in [4] it was 80%. Also, the efficacy in the series with Spodoptera frugiperda is 100%; in the series with Rhipicephalus sanguineus, 80%; with Tetranychus urticae it was 100%; with Phaedon cochleariae it was 100%. In addition, the “efficacy (rate of extermination)” value in the series with Ctenocephalides felis [2] and in the series with Musca domestica was 100% each time. Moreover, the herbicidal efficacy (in the series with Viola tricolor (VIOTR); in [8]) was 100% each time.

On to `CC(=O)NCc1cc(-c2cnn(-c3c(C)cc(C(F)(C(F)(F)F)C(F)(F)F)cc3C)c2)ccc1Cl` [Ia-95], for which the “efficacy (kill)” value in the series on Myzus persicae [9] was 85%. Besides, the “efficacy (laying of fertile eggs)” value (with Boophilus microplus; in series [4]) was 100% each time. Also, the efficacy with Spodoptera frugiperda came out at 100%; in the series on Rhipicephalus sanguineus, 80%; in the series on Tetranychus urticae, 100%; in the series with Ctenocephalides felis [3], 100%; in the series with Phaedon cochleariae, 100%. In addition, the “efficacy (rate of extermination)” value in the series with Ctenocephalides felis [2] and with Musca domestica was 100% throughout.

As for `CC(=O)NCc1cc(-c2cnn(-c3c(Cl)cc(C(F)(C(F)(F)F)C(F)(F)F)cc3Cl)c2)ccc1Cl` [Ia-05, N-(2-chloro-5-{1-[2,6-dichloro-4-(1,1,1,2,3,3,3-heptafluoropropan-2-yl)phenyl]-1H-pyrazol-4-yl}benzyl)acetamide], the chromatographic logP under setting [10] came to 4.13 and the chromatographic logP (reversed-phase C18 HPLC column, logP^a, HPLC-MS method a)) stood at 4.13. In the series with Boophilus microplus, the “efficacy (laying of fertile eggs)” value is given as 100%. The mortality at 20 mg/m2 in series [5], in [6] and in [7] was 90 to 100% throughout. For the same compound, the mortality at 100 mg/m2 in series [5], in series [6] and in [7] was 90 to 100% each time. In addition, the pest or weed control at 100 g/ha in the series on Spodoptera frugiperda and with Phaedon cochleariae was 100% in each case. In addition, the efficacy in the series with Rhipicephalus sanguineus and in the series with Ctenocephalides felis [3] was 100% throughout. Besides, the “efficacy (rate of extermination)” value in the series with Ctenocephalides felis [2] and in the series on Musca domestica was 100% in each case.
